The record followed here is US9650334B2 (AbbVie Deutschland GmbH & Co. KG, priority 2013, dated 2017).

For one experiment, the target named is T1, human GlyT1c transporter (Homo sapiens, UniProt P48067).
T1 sequence (P48067 1-706): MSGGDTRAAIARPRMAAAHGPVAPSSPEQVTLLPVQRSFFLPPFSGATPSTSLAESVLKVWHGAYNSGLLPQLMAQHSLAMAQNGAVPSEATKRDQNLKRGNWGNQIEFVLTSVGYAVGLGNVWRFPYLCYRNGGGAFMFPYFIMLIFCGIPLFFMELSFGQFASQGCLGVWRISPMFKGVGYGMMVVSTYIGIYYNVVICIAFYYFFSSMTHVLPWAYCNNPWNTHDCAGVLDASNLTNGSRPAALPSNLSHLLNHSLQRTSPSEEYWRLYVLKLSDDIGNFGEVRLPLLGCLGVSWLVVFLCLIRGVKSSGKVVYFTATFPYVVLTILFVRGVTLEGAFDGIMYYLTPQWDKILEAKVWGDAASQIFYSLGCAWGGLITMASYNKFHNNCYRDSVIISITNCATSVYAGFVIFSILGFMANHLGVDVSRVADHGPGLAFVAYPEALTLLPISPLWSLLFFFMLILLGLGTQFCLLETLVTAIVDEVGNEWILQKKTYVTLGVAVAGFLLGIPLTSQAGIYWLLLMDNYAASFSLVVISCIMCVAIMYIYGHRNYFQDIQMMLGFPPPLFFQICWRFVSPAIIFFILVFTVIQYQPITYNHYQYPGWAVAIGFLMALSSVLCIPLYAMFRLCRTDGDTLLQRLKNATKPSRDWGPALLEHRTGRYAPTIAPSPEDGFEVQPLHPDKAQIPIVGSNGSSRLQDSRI
Nature of the experiment: Radioligand binding assays using recombinant CHO cell membranes expressing human GlyT1. Particulars: Ki, radioligand binding to human GlyT1c transporter-expressing CHO cell membranes.
As to `Cn1cnc(S(=O)(=O)N2C[C@H](Nc3ccc(F)c(C(F)(F)F)c3)[C@@H](C3OCCCO3)C2)c1` [Example 912, (3R,4S)-4-(1,3-dioxan-2-yl)-N-[4-fluoro-3-(trifluoromethyl)phenyl]-1-[(1-methyl-1H-imidazol-4-yl)sulfonyl]pyrrolidin-3-amine], the inhibitory constant (Ki) (commonly the dissociation constant of the complex between target and ligand, obtained from inhibition or displacement) was no more than 10 nM.

Turning to `Cn1cnc(S(=O)(=O)N2CC(Nc3cccc(OC(F)(F)F)c3)C(N3CCCCC3)C2)c1` (stereo not drawn) [Example 913, 1-[(1-methyl-1H-imidazol-4-yl)sulfonyl]-4-(piperidin-1-yl)-N-[3-(trifluoromethoxy)phenyl]pyrrolidin-3-amine], the inhibitory constant (Ki) was no more than 10 nM. With `Cn1cnc(S(=O)(=O)N2C[C@H](Nc3cccc(Cl)c3)[C@@H](C3OCCCO3)C2)c1` [Example 914, (3R,4S)-N-(3-chlorophenyl)-4-(1,3-dioxan-2-yl)-1-[(1-methyl-1H-imidazol-4-yl)sulfonyl]pyrrolidin-3-amine], the inhibition constant (Ki) is no more than 10 nM. As for `Cn1cnc(S(=O)(=O)N2C[C@H](Nc3cccc(C(F)(F)F)c3)[C@@H](C3OCCCO3)C2)c1` [Example 915, (3R,4S)-4-(1,3-dioxan-2-yl)-1-[(1-methyl-1H-imidazol-4-yl)sulfonyl]-N-[3-(trifluoromethyl)phenyl]pyrrolidin-3-amine], the Ki was no more than 10 nM. The same measure, in the same setting: with `Cn1cnc(S(=O)(=O)N2C[C@H](Nc3ccc(F)c(Cl)c3)[C@@H](C3OCCCO3)C2)c1` [Example 916, (3R,4S)-N-(3-chloro-4-fluorophenyl)-4-(1,3-dioxan-2-yl)-1-[(1-methyl-1H-imidazol-4-yl)sulfonyl]pyrrolidin-3-amine] the figure was no more than 100 nM; with `Cc1cccc(N[C@H]2CN(S(=O)(=O)c3cn(C)cn3)C[C@@H]2C2OCCCO2)c1` [Example 917, (3R,4S)-4-(1,3-dioxan-2-yl)-1-[(1-methyl-1H-imidazol-4-yl)sulfonyl]-N-(3-methylphenyl)pyrrolidin-3-amine], no more than 100 nM; with `Cn1cnc(S(=O)(=O)N2CC(Cc3cccc(C(F)(F)F)c3)C(C3OCCCO3)C2)c1` (stereo not drawn) [Example 918, 4-({3-(1,3-dioxan-2-yl)-4-[3-(trifluoromethyl)benzyl]pyrrolidin-1-yl}sulfonyl)-1-methyl-1H-imidazole], no more than 1000 nM.

In the case of `Cn1cc(S(=O)(=O)N2CC(Cc3cccc(C(F)(F)F)c3)C(C3OCCCO3)C2)nn1` (stereo not drawn) [Example 919, 4-({3-(1,3-dioxan-2-yl)-4-[3-(trifluoromethyl)benzyl]pyrrolidin-1-yl}sulfonyl)-1-methyl-1H-1,2,3-triazole], the Ki is no more than 10000 nM. `Cn1cnc(S(=O)(=O)N2C[C@H](Nc3cccc(OC(F)(F)F)c3)[C@@H](C3OCC4(CC4)CO3)C2)c1` [Example 920, (3R,4S)-4-(5,7-dioxaspiro[2.5]oct-6-yl)-1-[(1-methyl-1H-imidazol-4-yl)sulfonyl]-N-[3-(trifluoromethoxy)phenyl]pyrrolidin-3-amine]: the Ki was no more than 10 nM.

Regarding `C[C@@H]1C[C@@H](C)OC([C@H]2CN(S(=O)(=O)c3cn(C)cn3)C[C@@H]2Nc2cccc(OC(F)(F)F)c2)O1` (stereo partly drawn) [Example 921, (3R,4S)-4-[(4R,6R)-4,6-dimethyl-1,3-dioxan-2-yl]-1-[(1-methyl-1H-imidazol-4-yl)sulfonyl]-N-[3-(trifluoromethoxy)phenyl]pyrrolidin-3-amine], the Ki is no more than 100 nM.

For `C[C@H]1C[C@H](C)OC([C@H]2CN(S(=O)(=O)c3cn(C)cn3)C[C@@H]2Nc2cccc(OC(F)(F)F)c2)O1` (stereo partly drawn) [Example 922, (3R,4S)-4-[(4S,6S)-4,6-dimethyl-1,3-dioxan-2-yl]-1-[(1-methyl-1H-imidazol-4-yl)sulfonyl]-N-[3-(trifluoromethoxy)phenyl]pyrrolidin-3-amine], the inhibitory constant (Ki) is no more than 10 nM. The same measure, in the same setting: the same measure for `Cc1cc(N[C@H]2CN(S(=O)(=O)c3cn(C)cn3)C[C@@H]2C2OCCCO2)ccc1F` [Example 923, (3R,4S)-4-(1,3-dioxan-2-yl)-N-(4-fluoro-3-methylphenyl)-1-[(1-methyl-1H-imidazol-4-yl)sulfonyl]pyrrolidin-3-amine]: no more than 100 nM; for `Cn1cnc(S(=O)(=O)N2C[C@H](Nc3ccc(F)c(OC(F)(F)F)c3)[C@@H](C3OCCCO3)C2)c1` [Example 924, (3R,4S)-4-(1,3-dioxan-2-yl)-N-[4-fluoro-3-(trifluoromethoxy)phenyl]-1-[(1-methyl-1H-imidazol-4-yl)sulfonyl]pyrrolidin-3-amine]: no more than 10 nM; for `Cn1cnc(S(=O)(=O)N2C[C@H](Nc3cccc(OC(F)F)c3)[C@@H](C3OCCCO3)C2)c1` [Example 925, (3R,4S)-N-[3-(difluoromethoxy)phenyl]-4-(1,3-dioxan-2-yl)-1-[(1-methyl-1H-imidazol-4-yl)sulfonyl]pyrrolidin-3-amine]: no more than 10 nM.

Turning to `CC(C)c1cccc(N[C@H]2CN(S(=O)(=O)c3cn(C)cn3)C[C@@H]2C2OCCCO2)c1` [Example 926, (3R,4S)-4-(1,3-dioxan-2-yl)-1-[(1-methyl-1H-imidazol-4-yl)sulfonyl]-N-[3-(propan-2-yl)phenyl]pyrrolidin-3-amine], the Ki is no more than 10 nM. In the case of `Cn1cnc(S(=O)(=O)N2CC(Nc3ccc(F)c(C(F)(F)F)c3)C(c3ccc(F)cn3)C2)c1` (stereo not drawn) [Example 927, 4-(5-fluoropyridin-2-yl)-N-[4-fluoro-3-(trifluoromethyl)phenyl]-1-[(1-methyl-1H-imidazol-4-yl)sulfonyl]pyrrolidin-3-amine], the Ki was no more than 10 nM. Still for that read-out and setting: with `Cn1cnc(S(=O)(=O)N2C[C@H](Nc3cccc(OCC(F)F)c3)[C@@H](C3OCCCO3)C2)c1` [Example 928, (3R,4S)-N-[3-(2,2-difluoroethoxy)phenyl]-4-(1,3-dioxan-2-yl)-1-[(1-methyl-1H-imidazol-4-yl)sulfonyl]pyrrolidin-3-amine] the figure was no more than 10 nM.

The experiment is the same for the next values; noted with them: radioligand binding to human GlyT1c transporter-expressing CHO cell membranes.
With “(3R,4S)-N-[2-chloro-4-(trifluoromethyl)benzyl]-1-[(1-methyl-1H-imidazol-4-yl)sulfonyl]-4-phenylpyrrolidin-3-amine [Example 394]”, the inhibitory constant (Ki) was no more than 10 nM. On the same count and under the same terms, with “N-{(3R,4S)-4-(4-fluorophenyl)-1-[(1-methyl-1H-imidazol-4-yl)sulfonyl]pyrrolidin-3-yl}-6-(2-methylpropoxy)pyrimidin-4-amine [Example 718]” the figure was no more than 100 nM; with “Trans-N-[4-chloro-3-(trifluoromethoxy)phenyl]-1-[(1-methyl-1H-imidazol-4-yl)sulfonyl]-4-[(3S)-tetrahydro-2H-pyran-3-yl]pyrrolidin-3-amine [Example 793]”, no more than 10000 nM. Still for that read-out and setting: with “Trans-N-[4-chloro-3-(trifluoromethyl)phenyl]-1-[(1-methyl-1H-imidazol-4-yl)sulfonyl]-4-[(3S)-tetrahydro-2H-pyran-3-yl]pyrrolidin-3-amine [Example 792]” the figure was no more than 10000 nM.
